Holding throughout (assay type): cell-based
The test system of assay [1] is Bacillus cereus. The experiment in a line: Agar plate disc-diffusion, antibacterial inhibition zone. As to conditions: nutrient agar, 37° C., 48 hours, DMSO zone subtracted. The procedure: (§1) The agar plate disc-diffusion method was applied. […] The discs were then placed onto the surface of agar plates (nutrient agar for bacteria and Sabouraud's dextrose agar for fungi) seeded with the test organism. Each plate contained 15 mL of the agar medium, previously seeded with 0.2 mL of the broth culture of each organism pregrown for 18 hours. The plates were incubated at 37° C. for 48 hours, and 72 hours for fungi. The inhibition zones was measured in millimeter. Discs impregnated with DMSO were used as a control, and its inhibition zone was subtracted from the tested compound actual inhibition zone.
(§2) The results of the antimicrobial testing can be observed in Tables 1 and 2, below, with ciprofloxacin serving as a reference.
(In general: In agar diffusion tests the substance spreads into inoculated agar from a disc or well.)

For assay [2], the system named is Escherichia coli. The assay is described as above. As to conditions: nutrient agar, 37° C., 48 hours, DMSO zone subtracted. As to the method:
as §1, §2

The test system of assay [3] is Pseudomonas aeruginosa. The description is as above. Conditions: nutrient agar, 37° C., 48 hours, DMSO zone subtracted. The procedure:
as §1, §2

The test system of assay [4] is Staphylococcus aureus. Described as above. Conditions: nutrient agar, 37° C., 48 hours, DMSO zone subtracted. As to the method: as §1, §2
Assay [5] deals with Aspergillus flavus. The experiment in a line: Agar plate disc-diffusion, antifungal inhibition zone. As to conditions: Sabouraud's dextrose agar, 72 hours, DMSO zone subtracted. As to the method:
as §1, §2

Assay [6] deals with Chrysosporium keratinophilum. Described as above. Conditions: Sabouraud's dextrose agar, 72 hours, DMSO zone subtracted. The procedure: as §1, §2
[7] abbreviates: A = concentration of comp. = 10,000 μL.
[8] abbreviates: B = concentration of comp. = 30.000 μL.
Where [9] appears, read: C = concentration of comp. = 50,000 μL.

Take `O=C1NC(=O)C(c2ccccc2)(c2ccccc2)N1/N=C/c1ccccc1Cl` [Compound 4, 1-(2-chlorobenzylideneamino)-5,5-diphenylimidazolidine-2,4-dione]: the “inhibition zone, Bacillus Cereus, A” value in assay [1] (setting [7]) came out at 26 millimeter. Also, in assay [1] (setting [8]), the “inhibition zone, Bacillus Cereus, B” value was 29 millimeter. Moreover, in assay [1] (setting [9]), the “inhibition zone, Bacillus Cereus, C” value is 41 millimeter. Besides, in assay [2] (setting [7]), the “inhibition zone, Escherichia coli, A” value is 27 millimeter. Besides, the “inhibition zone, Escherichia coli, B” value in assay [2] (setting [8]) was determined as 32 millimeter. In addition, in assay [2] (setting [9]), the “inhibition zone, Escherichia coli, C” value is given as 51 millimeter. Also, the “inhibition zone, Pseudomonas aeruginosa, A” value in assay [3] (setting [7]) was 20 millimeter. In assay [3] (setting [8]), the “inhibition zone, Pseudomonas aeruginosa, B” value was 24 millimeter. The “inhibition zone, Pseudomonas aeruginosa, C” value in assay [3] (setting [9]) came to 34 millimeter. The “inhibition zone, Staphylococcus aureus, A” value in assay [4] (setting [7]) is 10 millimeter. Besides, in assay [4] (setting [8]), the “inhibition zone, Staphylococcus aureus, B” value worked out at 17 millimeter. For the same compound, the “inhibition zone, Staphylococcus aureus, C” value in assay [4] (setting [9]) amounted to 20 millimeter. In assay [5] (setting [7]), the “inhibition zone, Aspergillus flavus, A” value turned out to be 25 millimeter. Besides, the “inhibition zone, Aspergillus flavus, B” value in assay [5] (setting [8]) is 24 millimeter. In addition, in assay [5] (setting [9]), the “inhibition zone, Aspergillus flavus, C” value is reported as 36 millimeter. The “inhibition zone, Chrysosporium keratinophilum, A” value in assay [6] (setting [7]) was determined as 27 millimeter. For the same compound, in assay [6] (setting [8]), the “inhibition zone, Chrysosporium keratinophilum, B” value amounted to 29 millimeter. The “inhibition zone, Chrysosporium keratinophilum, C” value in assay [6] (setting [9]) amounted to 50 millimeter.

The record behind these values is US11926599B1, “1-(2-chlorobenzylideneamino)-5,5-diphenylimidazolidine-2,4-dione as an antimicrobial compound” (KING FAISAL UNIVERSITY, priority 2023, dated 2024).
